Laboratory results published in the supplement of paper PMC11451515.

What was measured:
Conditions in all cases: 48 h
P12-Ichikawa [1] = assay: cell viability relative to DMSO control; higher = less cytotoxic
Procedure, shortened: (§1)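 Cells were incubated for 48 h at 37°C before CellTiter-Glo One luminescence was read. The cells were NOMO1 or SEM (500 cells/well) or P12-Ichikawa (1000 cells/well) leukemia cells, adapted for at least four passages in each medium and seeded in 1536-well plates (5 μl). Dosing used library compounds in DMSO applied by pin over 11 threefold points, 47 μM to 0.79 nM. Viability is the per-plate percentage of DMSO wells, with cell-free wells as background.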

SEM cells [2] = assay: as above
Procedure, shortened: as §1

NOMO1 [3] = assay: as above
Procedure, shortened: as §1

P12-Ichikawa [4] = assay: AUC of viability dose-response curve (% viability x log10 dose units); higher = less sensitive
Procedure, shortened: (§2)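 Medium-adapted leukemia cells in 1536-well plates, at 500 or 1000 cells/well, were incubated for 48 h at 37°C with library compounds in DMSO at 11 threefold doses from 47 μM to 0.79 nM. CellTiter-Glo One luminescence normalised per plate to DMSO and cell-free wells was fitted with a four-parameter log-logistic model over log10 doses. Area under the curve was integrated from this fit by trapezoidal rule, with curves beyond full viability scaled and failed quality-control curves removed.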

SEM cells [5] = assay: as above
Procedure, shortened: as §2

NOMO1 [6] = assay: as above
Procedure, shortened: as §2

Cc1ccccc1C(C(=O)NC1CCCCC1)N(C(=O)Cn1ccnc1C)c1cccc(F)c1 (stereo not given)
cell viability [%]
Conditions | NOMO1 [3] | P12-Ichikawa [1] | SEM cells [2]
HPLM + 10% dialyzed FBS, 0.000781 µM | 96.4 | 117 | 109
HPLM + 10% dialyzed FBS, 0.00234 µM | 93.1 | 114 | 31
HPLM + 10% dialyzed FBS, 0.00702 µM | 122 | 115 | 118
HPLM + 10% dialyzed FBS, 0.0211 µM | 119 | 105 | 111
HPLM + 10% dialyzed FBS, 0.0632 µM | 123 | 105 | 109
HPLM + 10% dialyzed FBS, 0.19 µM | 111 | 104 | 130
HPLM + 10% dialyzed FBS, 0.569 µM | 108 | 109 | 127
HPLM + 10% dialyzed FBS, 1.71 µM | 90 | 104 | 124
HPLM + 10% dialyzed FBS, 5.12 µM | 100 | 104 | 114
HPLM + 10% dialyzed FBS, 15.4 µM | 99.2 | 102 | 100
HPLM + 10% dialyzed FBS, 46.1 µM | 89.4 | 102 | 92.7
RPMI 5 mM glucose + 10% FBS, 0.000781 µM | 88.6 | 100 | 112
RPMI 5 mM glucose + 10% FBS, 0.00234 µM | 93.9 | 113 | 108
RPMI 5 mM glucose + 10% FBS, 0.00702 µM | 102 | 105 | 96.9
RPMI 5 mM glucose + 10% FBS, 0.0211 µM | 91.9 | 106 | 103
RPMI 5 mM glucose + 10% FBS, 0.0632 µM | 93.9 | 105 | 98.4
RPMI 5 mM glucose + 10% FBS, 0.19 µM | 109 | 101 | 114
RPMI 5 mM glucose + 10% FBS, 0.569 µM | 106 | 103 | 112
RPMI 5 mM glucose + 10% FBS, 1.71 µM | 91.7 | 102 | 121
RPMI 5 mM glucose + 10% FBS, 5.12 µM | 90.7 | 93.1 | 110
RPMI 5 mM glucose + 10% FBS, 15.4 µM | 86 | 102 | 84.1
RPMI 5 mM glucose + 10% FBS, 46.1 µM | 97.3 | 97.1 | 88.9
RPMI 5 mM glucose + 10% dialyzed FBS, 0.000781 µM | 104 | 96.2 | 84.5
RPMI 5 mM glucose + 10% dialyzed FBS, 0.00234 µM | 85.9 | 103 | 27.9
RPMI 5 mM glucose + 10% dialyzed FBS, 0.00702 µM | 104 | 104 | 100
RPMI 5 mM glucose + 10% dialyzed FBS, 0.0211 µM | 106 | 104 | 105
RPMI 5 mM glucose + 10% dialyzed FBS, 0.0632 µM | 99.1 | 102 | 102
RPMI 5 mM glucose + 10% dialyzed FBS, 0.19 µM | 116 | 100 | 88.5
RPMI 5 mM glucose + 10% dialyzed FBS, 0.569 µM | 100 | 98.7 | 110
RPMI 5 mM glucose + 10% dialyzed FBS, 1.71 µM | 91 | 97.9 | 95.2
RPMI 5 mM glucose + 10% dialyzed FBS, 5.12 µM | 91.4 | 95.2 | 97.4
RPMI 5 mM glucose + 10% dialyzed FBS, 15.4 µM | 93.3 | 93.1 | 93.6
RPMI 5 mM glucose + 10% dialyzed FBS, 46.1 µM | 80.7 | 97.3 | 90.6

AUC of viability dose-response curve
Conditions | NOMO1 [6] | P12-Ichikawa [4] | SEM cells [5]
HPLM + 10% dialyzed FBS | 452 | 442 | 449
RPMI 5 mM glucose + 10% FBS | 456 | 461 | 462
RPMI 5 mM glucose + 10% dialyzed FBS | 455 | 466 | 438

COC(=O)Nc1nc2cc(C(=O)c3cccs3)ccc2[nH]1
cell viability [%]
Conditions | NOMO1 [3] | P12-Ichikawa [1] | SEM cells [2]
HPLM + 10% dialyzed FBS, 0.000781 µM | 106 | 121 | 102
HPLM + 10% dialyzed FBS, 0.00234 µM | 88.5 | 107 | 71.5
HPLM + 10% dialyzed FBS, 0.00702 µM | 113 | 110 | 94.1
HPLM + 10% dialyzed FBS, 0.0211 µM | 81.8 | 55.9 | 48.1
HPLM + 10% dialyzed FBS, 0.0632 µM | 43.6 | 37 | 28.1
HPLM + 10% dialyzed FBS, 0.19 µM | 34.2 | 17.8 | 30.4
HPLM + 10% dialyzed FBS, 0.569 µM | 32.3 | 25.4 | 24.9
HPLM + 10% dialyzed FBS, 1.71 µM | 44 | 14.6 | 28
HPLM + 10% dialyzed FBS, 5.12 µM | 57.7 | 10.1 | 25.8
HPLM + 10% dialyzed FBS, 15.4 µM | 57.3 | 10.2 | 28.9
HPLM + 10% dialyzed FBS, 46.1 µM | 53.1 | 36.8 | 19.8
RPMI 5 mM glucose + 10% FBS, 0.000781 µM | – | 117 | 95.6
RPMI 5 mM glucose + 10% FBS, 0.00234 µM | – | 123 | 46.7
RPMI 5 mM glucose + 10% FBS, 0.00702 µM | – | 119 | 88
RPMI 5 mM glucose + 10% FBS, 0.0211 µM | – | 82 | 37
RPMI 5 mM glucose + 10% FBS, 0.0632 µM | – | 42.2 | 15.3
RPMI 5 mM glucose + 10% FBS, 0.19 µM | – | 18.1 | 15.1
RPMI 5 mM glucose + 10% FBS, 0.569 µM | – | 23.3 | 17.5
RPMI 5 mM glucose + 10% FBS, 1.71 µM | – | 16.7 | 14.8
RPMI 5 mM glucose + 10% FBS, 5.12 µM | – | 10.5 | 13.9
RPMI 5 mM glucose + 10% FBS, 15.4 µM | – | 11.8 | 14.3
RPMI 5 mM glucose + 10% FBS, 46.1 µM | – | 33.1 | 14.2
RPMI 5 mM glucose + 10% dialyzed FBS, 0.000781 µM | 98.2 | 120 | 111
RPMI 5 mM glucose + 10% dialyzed FBS, 0.00234 µM | 113 | 114 | 69
RPMI 5 mM glucose + 10% dialyzed FBS, 0.00702 µM | 129 | 128 | 94.4
RPMI 5 mM glucose + 10% dialyzed FBS, 0.0211 µM | 101 | 96.5 | 51.8
RPMI 5 mM glucose + 10% dialyzed FBS, 0.0632 µM | 53.6 | 57.6 | 24.7
RPMI 5 mM glucose + 10% dialyzed FBS, 0.19 µM | 28.1 | 27.3 | 25.5
RPMI 5 mM glucose + 10% dialyzed FBS, 0.569 µM | 33.7 | 35 | 22.3
RPMI 5 mM glucose + 10% dialyzed FBS, 1.71 µM | 36.1 | 25.1 | 27.2
RPMI 5 mM glucose + 10% dialyzed FBS, 5.12 µM | 36.2 | 17.4 | 26
RPMI 5 mM glucose + 10% dialyzed FBS, 15.4 µM | 40.5 | 18.5 | 26.6
RPMI 5 mM glucose + 10% dialyzed FBS, 46.1 µM | 42.2 | 48 | 22.2

AUC of viability dose-response curve
Conditions | NOMO1 [6] | P12-Ichikawa [4] | SEM cells [5]
HPLM + 10% dialyzed FBS | 297 | 193 | 212
RPMI 5 mM glucose + 10% FBS | 247 | 206 | 156
RPMI 5 mM glucose + 10% dialyzed FBS | 269 | 242 | 211
